Values of other authors as cited in patent US6720472B2, “HMGI proteins in cancer and obesity” (University of Medicine and Dentistry of New Jersey, priority 1996, dated 2004).
Entries after “also recorded” stand apart in the source; their conditions may differ. Read-outs that look alike come from different tables or passages of the source.

What was measured:
[1] = test system: ascites tumors [Ehrlich and sarcoma 180 (S180)]
[2] = test system: solid tumors (Ehrlich carcinoma, S180, Walker carcinoma, and Oberling-Guerin-Guerin myeloma)
HMG-I proteins = details: in vitro, A T-rich DNA
[3] = test system: B-DNA dodecamer of sequence C-G-C-G-A-A-T-T-BrC-G-C-G; details: X-ray analysis of the complex

| SMILES | inhibition on ascites tumors ([1]; Ehrlich and sarcoma 180 (S180) ascites tumors) | mitotic damages of tumor cells ([1]; Ehrlich ascites tumor) | mitotic index of the Ehrlich ascites tumor ([1]; Ehrlich ascites tumor) | growth of solid tumors [2] | competition with the BD peptide and the HMG-I proteins for DNA binding (HMG-I proteins) | competition with the BD peptide and the HMG-I proteins for DNA binding (HMG-I proteins; listed as distamycin) | binding site on DNA [3] |
| --- | --- | --- | --- | --- | --- | --- | --- |
| Cn1cc(NC(=O)c2cc(NC(=O)c3cc(NC=O)cn3C)cn2C)cc1C(=O)NCCC(=N)N [distamycin A] | strong inhibition | induces mitotic damages | decrease the mitotic index | delays the growth | compete with the HMGI proteins for binding to AT-rich DNA | effectively compete | – |
| Cn1cc(NC(=O)c2cc(NC(=O)CN=C(N)N)cn2C)cc1C(=O)NCCC(=N)N [netropsin] | – | – | – | – | compete with the HMGI proteins for binding to AT-rich DNA; also recorded: effectively compete | – | binds within the minor groove |
| CN1CCN(c2ccc3[nH]c(-c4ccc5[nH]c(-c6ccc(O)cc6)nc5c4)nc3c2)CC1 [Hoechst 33258, Hoechst 33258 (bisbenzimide)] | – | – | – | – | compete with the HMGI proteins for binding to AT-rich DNA; also recorded: effectively compete | – | – |
